Test results as given in paper PMC7619385 (ACS infectious diseases, 2025).
Like-named read-outs stand apart in the source and are kept apart here.

Biological target: T1, LmxCLK1 (Leishmania mexicana, UniProt E9AMP2)
T1 sequence (E9AMP2 1-422): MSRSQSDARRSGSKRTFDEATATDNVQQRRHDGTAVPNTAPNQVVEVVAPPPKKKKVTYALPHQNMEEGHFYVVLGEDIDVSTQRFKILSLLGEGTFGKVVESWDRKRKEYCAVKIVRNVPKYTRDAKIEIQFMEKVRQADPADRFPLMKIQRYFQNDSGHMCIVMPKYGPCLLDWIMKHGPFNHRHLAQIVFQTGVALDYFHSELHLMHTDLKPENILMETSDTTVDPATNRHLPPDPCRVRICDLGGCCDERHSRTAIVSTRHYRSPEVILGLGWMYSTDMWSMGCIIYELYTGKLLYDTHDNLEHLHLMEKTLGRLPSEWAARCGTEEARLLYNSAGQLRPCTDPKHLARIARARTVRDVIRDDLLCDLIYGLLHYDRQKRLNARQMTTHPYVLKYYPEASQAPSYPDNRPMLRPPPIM
Test: biochemical
Assay type: binding

[1] = DSF, 10 µM compound, 2 µM LmxCLK1, Run 1
[2] = DSF, 10 µM compound, 2 µM LmxCLK1, Run 2
[3] = DSF, 10 µM compound, 2 µM LmxCLK1, mean of two runs
[4] = DSF, 10 µM compound, 2 µM LmxCLK1, Run 1, read-out: ΔTm Run 1
[5] = DSF, 10 µM compound, 2 µM LmxCLK1, Run 2, read-out: ΔTm Run 2
[6] = DSF, 10 µM compound, 2 µM LmxCLK1, mean of two runs, read-out: ΔTm Average

| SMILES | ΔTm Run 1 [1] | ΔTm Run 2 [2] | ΔTm Average [3] | ΔTm at 10 µM [4] | ΔTm at 10 µM [5] | ΔTm at 10 µM [6] | also measured |
| --- | --- | --- | --- | --- | --- | --- | --- |
| COc1ncc(-c2ccc3nccc(-c4ccnnc4)c3c2)cc1NS(=O)(=O)c1ccc(F)cc1F [GSK2126458 (GSK458)] | -0.2 °C | -0.3 °C | -0.3 °C |  |  |  |  |
| CNc1nc(-c2ccc3c(N)n[nH]c3c2)cc(N2C[C@@H](C(=O)NC3CCCCC3)CC[C@H]2C)n1 [GSK2334470] |  |  |  | 0.3 °C | -0.5 °C | -0.1 °C |  |
| O=c1c(-c2ccc(O)cc2)coc2cc(O)cc(O)c12 [Genistein] |  |  |  | 0.2 °C | 0.3 °C | 0.2 °C |  |
| CN1CCN(C2CCN(C(=O)Nc3cc(Oc4ccc(NC(=O)C5(C(=O)Nc6ccc(F)cc6)CC5)c(F)c4)ccn3)CC2)CC1 [Golvatinib (E7050)] |  |  |  |  |  |  | ΔTm at 10 µM (read-out: ΔTm Average): 0.6 °C; ΔTm at 10 µM (read-out: ΔTm Run 1): 0.5 °C; ΔTm at 10 µM (read-out: ΔTm Run 2): 0.7 °C |
| Cl.Cl.O=S(=O)(NCCNC/C=C/c1ccc(Br)cc1)c1cccc2cnccc12 [H 89 2HCl] | 0.2 °C | -0.1 °C | 0.0 °C |  |  |  |  |
| COc1ccc(S(=O)(=O)N(C(C)=O)c2ccccc2/C=C/c2cc[n+]([O-])cc2)cc1 [HMN-214] |  |  |  | 0.4 °C | 0.1 °C | 0.2 °C |  |
| CCS(=O)(=O)Nc1ccc2c(c1)/C(=C(/Nc1ccc(CN3CCCCC3)cc1)c1ccccc1)C(=O)N2 [Hesperadin] |  |  |  | 1.7 °C | 1.3 °C | 1.5 °C |  |
| C=CCc1ccc(O)c(-c2ccc(O)c(CC=C)c2)c1 [Honokiol] |  |  |  | -0.2 °C | 0.2 °C | 0 °C |  |
| O=C(Nc1cc(C(F)(F)F)cc(C(F)(F)F)c1)c1cc(Cl)ccc1O [IMD 0354] |  |  |  | 0.2 °C | -0.1 °C | 0 °C |  |
| C=CC(=O)N1CCC[C@@H](n2nc(-c3ccc(Oc4ccccc4)cc3)c3c(N)ncnc32)C1 [Ibrutinib (PCI-32765)] | 0.2 °C | -0.2 °C | 0.0 °C |  |  |  |  |
| C#Cc1cccc(Nc2ncnc3cc4c(cc23)OCCOCCOCCO4)c1 [Icotinib] |  |  |  | -0.3 °C | -0.2 °C | -0.3 °C |  |
| O=C1Nc2ccccc2/C1=C1/Nc2ccccc2C1=O [Indirubin] |  |  |  |  |  |  | ΔTm at 10 µM (read-out: ΔTm Average): 0 °C; ΔTm at 10 µM (read-out: ΔTm Run 1): 0.1 °C; ΔTm at 10 µM (read-out: ΔTm Run 2): -0.1 °C |
| Nc1nc(Nc2ccc(S(N)(=O)=O)cc2)nn1C(=O)c1c(F)cccc1F [JNJ-7706621] |  |  |  | 1.4 °C | 1.7 °C | 1.6 °C |  |
| Cn1cc(-c2ccc3nnc(C(F)(F)c4ccc5ncccc5c4)n3n2)cn1 [JNJ-38877605] |  |  |  |  |  |  | ΔTm Average: -0.3; ΔTm Run 1: -0.1; ΔTm Run 2: -0.4 |
| N#Cc1c(NC(=O)c2cccc3ccccc23)sc2c1CCCC2 [JNK Inhibitor IX] | 0.3 °C | -0.1 °C | 0.1 °C |  |  |  |  |
| Cc1cc(NC(=O)c2cccc(NC(=O)/C=C/CN(C)C)c2)ccc1Nc1nccc(-c2cccnc2)n1 [JNK-IN-8] |  |  |  | 0.2 °C | -0.5 °C | -0.1 °C |  |
| CN([C@@H](Cc1ccc(OS(=O)(=O)c2cccc3cnccc23)cc1)C(=O)N1CCN(c2ccccc2)CC1)S(=O)(=O)c1cccc2cnccc12 [KN-62] |  |  |  |  |  |  | ΔTm Average: -0.3; ΔTm Run 1: -0.4; ΔTm Run 2: -0.2 |
| COc1ccc(S(=O)(=O)N(CCO)c2ccccc2CN(C)C/C=C/c2ccc(Cl)cc2)cc1.O=P(O)(O)O [KN-93 Phosphate] | 0.1 °C | -0.5 °C | -0.2 °C |  |  |  |  |
| CCCNC(=O)Nc1ccc(Oc2ncnc3cc(OC)c(OC)cc23)cc1Cl [KRN 633] |  |  |  | 0.1 °C | -0.1 °C | 0 °C |  |
| C[C@@H]1CN(CC(=O)Nc2ccc3c(c2)Cc2cccc(-c4cc(=O)cc(N5CCOCC5)o4)c2S3)C[C@H](C)O1 [KU-60019] |  |  |  | -0.1 °C | -0.2 °C | -0.1 °C |  |
| COc1ccc(-c2ccc3c(N4CCOCC4)nc(N4C[C@@H](C)O[C@@H](C)C4)nc3n2)cc1CO [KU-0063794] |  |  |  | 0.1 °C | 0.1 °C | 0.1 °C |  |
| O=C(c1ccc(/C=C/c2n[nH]c3ccccc23)cc1)N1CCNCC1 [KW-2449] |  |  |  | 0.4 °C | 0.4 °C | 0.4 °C |  |
| O=C(Cc1ccc(-c2ccc(OCCN3CCOCC3)cc2)cn1)NCc1ccccc1 [KX2-391] |  |  |  |  |  |  | ΔTm Average: 0.1 °C; ΔTm Run 1: 0.2 °C; ΔTm Run 2: 0 °C |

| SMILES | ΔTm Run 1 [1] | ΔTm Run 2 [2] | ΔTm Average [3] | ΔTm at 10 µM [4] | ΔTm at 10 µM [5] | ΔTm at 10 µM [6] | also measured |
| --- | --- | --- | --- | --- | --- | --- | --- |
| COc1cc2nccc(Oc3ccc(NC(=O)Nc4ccc(F)cc4F)c(F)c3)c2cc1OC [Ki8751] | 0.0 °C | -0.2 °C | -0.1 °C |  |  |  |  |
| COc1ccccc1-c1cc(Nc2cccc(CS(N)(=O)=O)c2)ncn1 [LDC000067] | -0.1 °C | 0.0 °C | -0.1 °C |  |  |  |  |
| Cc1cc(Nc2ncc(Cl)c(Nc3ccccc3S(=O)(=O)C(C)C)n2)c(OC(C)C)cc1C1CCNCC1 [LDK378] |  |  |  | 0.4 °C | 0 °C | 0.2 °C |  |
| COc1ncccc1-c1cnn2ccc(N3CCN(C(=O)OC(C)C)CC3)nc12 [LP-935509 (AAK1)] | -0.2 °C | -0.4 °C | -0.3 °C |  |  |  |  |
| O=c1cc(N2CCOCC2)oc2c(-c3ccccc3)cccc12 [LY294002] |  |  |  | 0.5 °C | 0.2 °C | 0.3 °C |  |
| CC(C)(C)Cn1c(N)nc2ccc(-c3[nH]c(C(C)(C)C)nc3-c3ccc(F)cc3)nc21 [LY2228820] |  |  |  | -0.3 °C | -0.3 °C | -0.3 °C |  |
| Cc1cc(Nc2cc(CN3CCOCC3)c3nc(C)c(Cc4ccc(Cl)cc4F)n3n2)n[nH]1 [LY2784544] |  |  |  | -0.3 °C | -0.4 °C | -0.4 °C |  |
| CCN1CCN(Cc2ccc(Nc3ncc(F)c(-c4cc(F)c5nc(C)n(C(C)C)c5c4)n3)nc2)CC1 [LY2835219] |  |  |  | 2.2 °C | 2.1 °C | 2.2 °C |  |
| CS(=O)(=O)CCNCc1ccc(-c2ccc3ncnc(Nc4ccc(OCc5cccc(F)c5)c(Cl)c4)c3c2)o1.Cc1ccc(S(=O)(=O)O)cc1.Cc1ccc(S(=O)(=O)O)cc1 [Lapatinib (GW-572016) Ditosylate] | 0.3 °C | 0.0 °C | 0.1 °C |  |  |  |  |
| COc1cc2nccc(Oc3ccc(NC(=O)NC4CC4)c(Cl)c3)c2cc1C(N)=O [Lenvatinib (E7080)] | -0.1 °C | -0.4 °C | -0.3 °C |  |  |  |  |
| Cc1ccc(F)c(NC(=O)Nc2ccc(-c3cccc4[nH]nc(N)c34)cc2)c1 [Linifanib (ABT-869)] | 0.3 °C | 0.6 °C | 0.4 °C |  |  |  |  |
| Cc1c(F)cc(C(=O)NC2CC2)cc1-c1ccc(C(=O)NCC(C)(C)C)cn1 [Losmapimod (GW856553X)] | 0.4 °C | 0.1 °C | 0.2 °C |  |  |  |  |
| Cn1cnc2c(F)c(Nc3ccc(Br)cc3F)c(C(=O)NOCCO)cc21 [MEK162 (ARRY-162)] | -0.2 °C | -0.4 °C | -0.3 °C |  |  |  |  |
| COCCNCc1ccc(-c2cc3nccc(Oc4ccc(NC(=S)NC(=O)Cc5ccc(F)cc5)cc4F)c3s2)nc1 [MGCD-265] |  |  |  | 0 °C | -0.1 °C | -0.1 °C |  |
| Cl.Cl.NC1(c2ccc(-c3nc4ccn5c(=O)[nH]nc5c4cc3-c3ccccc3)cc2)CCC1 [MK-2206 2HCl] | -0.1 °C | -0.1 °C | -0.1 °C |  |  |  |  |
| O=C(c1cccc(Cl)c1F)N1CCN(Cc2cccc(Nc3nccs3)n2)CC1 [MK-8745] | 1.1 °C | 1.0 °C | 1.0 °C |  |  |  |  |
| Cn1cc(-c2cnn3c(N)c(Br)c([C@@H]4CCCNC4)nc23)cn1 [MK-8776 (SCH 900776)] |  |  |  |  |  |  | ΔTm Average: 0.3 °C; ΔTm Run 1: 0.5 °C; ΔTm Run 2: 0 °C |
| O=C(O)c1ccc(Nc2ncc3c(n2)-c2ccc(Cl)cc2C(c2c(F)cccc2F)=NC3)cc1 [MLN8054] |  |  |  | 0.3 °C | 0.1 °C | 0.2 °C |  |
| Cc1ccc(NC(=O)c2ccc(CN3CCN(C)CC3)cc2)cc1Nc1nc(-c2cccnc2)cs1 [Masitinib (AB1010)] | 0.3 °C | 0.2 °C | 0.2 °C |  |  |  |  |
| CNC(=O)c1nn(C)c2c1C(C)(C)Cc1cnc(Nc3ccc(N4CCN(C)CC4)cc3)nc1-2 [Milciclib (PHA-848125)] | 0.1 °C | -0.2 °C | 0.0 °C |  |  |  |  |
| CC1(C)CNc2cc(NC(=O)c3cccnc3NCc3ccncc3)ccc21.O=P(O)(O)O.O=P(O)(O)O [Motesanib Diphosphate (AMG-706)] | 0.3 °C | 0.1 °C | 0.2 °C |  |  |  |  |
| FC(F)(F)c1ccc(/C=C/c2nc(COc3ccc(CCCCn4ccnn4)cc3)co2)cc1 [Mubritinib (TAK 165)] |  |  |  |  |  |  | ΔTm Average: 0.2 °C; ΔTm Run 1: 0.4 °C; ΔTm Run 2: 0 °C |
| CN1CCN(c2ccc(OC(F)(F)F)c(Nc3ncc4c(n3)-c3c(c(C(N)=O)nn3CCO)CC4)c2)CC1 [NMS-P937 (NMS1286937)] | 0.0 °C | 0.0 °C | 0.0 °C |  |  |  |  |
